Test results reported in US11623924B2, “Modulators of alpha-1 antitrypsin” (Vertex Pharmaceuticals Incorporated, priority 2018, dated 2023).

Target: T1, NL20 human bronchial epithelial cells expressing human Z-AAT (Homo sapiens, UniProt P01009, E366K)
T1 construct: expressed in transfected cells; host or cells: NL20 human bronchial epithelial cells (NL20-SI line, doxycycline added)
Assay: AAT Function Assay (MSD Assay NL20-SI Cell Line)
Assay type: cell-based
Conditions: NL20 Func. (EC50), functionally active AAT (AAT-hNE complex) in supernatant of NL20 cells expressing human Z-AAT
Procedure, shortened: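 NL20 cells expressing Z-AAT, seeded 16,000 cells/well, received compound with doxycycline (0.1 μM final) and were incubated overnight at 37° C. Supernatants, diluted 45-fold in total, reacted with excess human neutrophil elastase; AAT-elastase complex captured on anti-AAT plates, detected with Sulfo-tagged anti-elastase by MSD electrochemiluminescence, and quantified against M-AAT standards (0.156-320 ng/mL).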

T1 sequence (P01009 25-418 E366K): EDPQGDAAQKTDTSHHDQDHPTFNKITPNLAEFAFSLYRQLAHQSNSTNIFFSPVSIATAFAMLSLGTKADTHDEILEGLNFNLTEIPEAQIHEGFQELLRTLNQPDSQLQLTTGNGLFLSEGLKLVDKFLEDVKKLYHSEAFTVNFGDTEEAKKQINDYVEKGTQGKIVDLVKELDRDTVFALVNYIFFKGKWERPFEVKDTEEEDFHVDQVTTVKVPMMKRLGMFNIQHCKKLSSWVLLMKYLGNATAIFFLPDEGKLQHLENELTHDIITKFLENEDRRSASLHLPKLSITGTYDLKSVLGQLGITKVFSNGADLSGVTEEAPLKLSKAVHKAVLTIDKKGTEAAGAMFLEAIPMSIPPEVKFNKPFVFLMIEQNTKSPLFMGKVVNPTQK

Compound	EC50
CC(C)c1c(C#N)c2cc3[nH]ncc3cc2n1-c1ccccc1 [Compound 42, 6-isopropyl-5-phenyl-1H-pyrrolo[2,3-f]indazole-7-carbonitrile]	1.16 to 3 µM
Cc1cccc(-n2c(C(C)C)c(C#N)c3cc4[nH]ncc4cc32)c1 [Compound 44, 6-isopropyl-5-(m-tolyl)-1H-pyrrolo[2,3-f]indazole-7-carbonitrile]	> 3 µM

Same assay, conditions: functionally active AAT (AAT-hNE complex) in supernatant of NL20 cells expressing human Z-AAT; read-out: NL20 Func. (EC50)

Compound	EC50
Cc1cc(-n2c(C(C)C)c([C@H]3C[C@@H](CC(=O)O)C3)c3cc4[nH]ncc4cc32)ccc1F [Compound 23]	< 1.16 µM
CC(C)c1c(C#N)c2cc3[nH]ncc3cc2n1-c1ccc(F)cc1 [Compound 29, 5-(4-fluorophenyl)-6-isopropyl-1H-pyrrolo[2,3-f]indazole-7-carbonitrile]	< 1.16 µM
CC(C)c1c(S(C)(=O)=O)c2cc3[nH]ncc3cc2n1-c1ccc(F)cc1 [Compound 30, 5-(4-fluorophenyl)-6-isopropyl-7-methylsulfonyl-1H-pyrrolo[2,3-f]indazole]	> 3 µM
CC(C)c1c(/C=C/C(=O)O)c2cc3[nH]ncc3cc2n1-c1ccc(F)cc1 [Compound 31, (E)-3-[5-(4-fluorophenyl)-6-isopropyl-1H-pyrrolo[2,3-f]indazol-7-yl]prop-2-enoic Acid]	1.16 to 3 µM
CC(C)c1c(CCC(=O)O)c2cc3[nH]ncc3cc2n1-c1ccc(F)cc1 [Compound 32, 3-[5-(4-fluorophenyl)-6-isopropyl-1H-pyrrolo[2,3-f]indazol-7-yl]propanoic Acid]	1.16 to 3 µM
CC(C)c1c(CC2(C(=O)O)CC2)c2cc3[nH]ncc3cc2n1-c1ccc(F)cc1 [Compound 33, 1-[[5-(4-fluorophenyl)-6-isopropyl-1H-pyrrolo[2,3-f]indazol-7-yl]methyl]cyclopropanecarboxylic Acid]	< 1.16 µM
CC(C)c1c(CCC(=O)O)c2cc3[nH]ncc3cc2n1-c1cccc(C(F)F)c1 [Compound 37, 3-[5-[3-(difluoromethyl)phenyl]-6-isopropyl-1H-pyrrolo[2,3-f]indazol-7-yl]propanoic Acid]	> 3 µM
CC(C)c1c(CCC(=O)O)c2cc3[nH]ncc3cc2n1-c1ccc(F)c(F)c1 [Compound 38, 3-[5-(3,4-difluorophenyl)-6-isopropyl-1H-pyrrolo[2,3-f]indazol-7-yl]propanoic Acid]	1.16 to 3 µM
CC(C)c1c(CC2(C(=O)O)CC2)c2cc3[nH]ncc3cc2n1-c1cccc(C(F)(F)F)c1 [Compound 39, 1-[[6-isopropyl-5-[3-(trifluoromethyl)phenyl]-1H-pyrrolo[2,3-f]indazol-7-yl]methyl]cyclopropanecarboxylic Acid]	1.16 to 3 µM
CC(C)c1c(CCC(=O)O)c2cc3[nH]ncc3cc2n1-c1cccc(C(F)(F)F)c1 [Compound 40, 3-[6-isopropyl-5-[3-(trifluoromethyl)phenyl]-1H-pyrrolo[2,3-f]indazol-7-yl]propanoic Acid]	> 3 µM
CC(C)c1c(CCC(=O)O)c2cc3[nH]ncc3cc2n1-c1ccccc1 [Compound 41, 3-(6-isopropyl-5-phenyl-1H-pyrrolo[2,3-f]indazol-7-yl)propanoic Acid]	1.16 to 3 µM
Cc1cc(-n2c(C(C)C)cc3cc4[nH]ncc4cc32)ccn1 [Compound 43, 6-isopropyl-5-(2-methyl-4-pyridyl)-1H-pyrrolo[2,3-f]indazole]	> 3 µM
CC(C)c1c(C#N)c2cc3[nH]ncc3cc2n1-c1cccc(Cl)c1 [Compound 45, 5-(3-chlorophenyl)-6-isopropyl-1H-pyrrolo[2,3-f]indazole-7-carbonitrile]	> 3 µM
Cc1cc(-n2c(C(C)C)c(I)c3cc4[nH]nc(F)c4cc32)ccc1F [Compound 46, 3-fluoro-5-(4-fluoro-3-methyl-phenyl)-7-iodo-6-isopropyl-1H-pyrrolo[2,3-f]indazole]	> 3 µM
Cc1cc(-n2c(C(C)C)c(S(C)(=O)=O)c3cc4[nH]nc(F)c4cc32)ccc1F [Compound 47, 3-fluoro-5-(4-fluoro-3-methyl-phenyl)-6-isopropyl-7-methylsulfonyl-1H-pyrrolo[2,3-f]indazole]	> 3 µM
Cc1cc(-n2c(C(C)C)cc3c(I)c4[nH]ncc4cc32)ccc1F [Compound 48, 5-(4-fluoro-3-methyl-phenyl)-8-iodo-6-isopropyl-1H-pyrrolo[2,3-f]indazole]	> 3 µM
Cc1cc(-n2c(C(C)C)cc3c(C)c4[nH]ncc4cc32)ccc1F [Compound 49, 5-(4-fluoro-3-methyl-phenyl)-6-isopropyl-8-methyl-1H-pyrrolo[2,3-f]indazole]	> 3 µM
Cc1cc(-n2c(C(C)C)cc3c(F)c4[nH]ncc4cc32)ccc1F [Compound 50, 8-fluoro-5-(4-fluoro-3-methyl-phenyl)-6-isopropyl-1H-pyrrolo[2,3-f]indazole]	> 3 µM
Cc1cc(-n2c(C(C)C)c(CCC(=O)O)c3c(C)c4[nH]ncc4cc32)ccc1F [Compound 51, 3-[5-(4-fluoro-3-methyl-phenyl)-6-isopropyl-8-methyl-1H-pyrrolo[2,3-f]indazol-7-yl]propanoic acid]	1.16 to 3 µM
Cc1cc(-n2c(C(C)C)c(CCC(=O)O)c3c(F)c4[nH]ncc4cc32)ccc1F [Compound 52, 3-[8-fluoro-5-(4-fluoro-3-methyl-phenyl)-6-isopropyl-1H-pyrrolo[2,3-f]indazol-7-yl]propanoic Acid]	< 1.16 µM
CC(C)c1c(CCC(=O)O)c2c(F)c3[nH]ncc3cc2n1-c1ccc(F)cc1 [Compound 53, 3-[8-fluoro-5-(4-fluorophenyl)-6-isopropyl-1H-pyrrolo[2,3-f]indazol-7-yl]propanoic Acid]	< 1.16 µM
Cc1cc(-n2c(C(C)C)c(CCC(=O)O)c3cc4[nH]nc(C)c4cc32)ccc1F [Compound 54, 3-[5-(4-fluoro-3-methyl-phenyl)-6-isopropyl-3-methyl-1H-pyrrolo[2,3-f]indazol-7-yl]propanoic Acid]	> 3 µM

Compound	EC50
Fc1ccc(-n2c(C3CCOCC3)cc3cc4[nH]ncc4cc32)cc1 [Compound 60, 5-(4-fluorophenyl)-6-tetrahydropyran-4-yl-1H-pyrrolo[2,3-f]indazole]	> 3 µM
N#Cc1c(C2CCOCC2)n(-c2ccc(F)cc2)c2cc3cn[nH]c3cc12 [Compound 61, 5-(4-fluorophenyl)-6-tetrahydropyran-4-yl-1H-pyrrolo[2,3-f]indazole-7-carbonitrile]	> 3 µM
CS(=O)(=O)c1c(C2CCOCC2)n(-c2ccc(F)cc2)c2cc3cn[nH]c3cc12 [Compound 62, 5-(4-fluorophenyl)-7-methylsulfonyl-6-tetrahydropyran-4-yl-1H-pyrrolo[2,3-f]indazole]	> 3 µM
Fc1ccc(-n2c(C3CCOCC3)c(Cl)c3cc4[nH]ncc4cc32)cc1 [Compound 63, 7-chloro-5-(4-fluorophenyl)-6-tetrahydropyran-4-yl-1H-pyrrolo[2,3-f]indazole]	1.16 to 3 µM
O=C(O)CCc1c(C2CCOCC2)n(-c2ccc(F)c(F)c2)c2cc3cn[nH]c3cc12 [Compound 64, 3-[5-(3,4-difluorophenyl)-6-tetrahydropyran-4-yl-1H-pyrrolo[2,3-f]indazol-7-yl]propanoic Acid]	> 3 µM
O=C(O)[C@H]1C[C@@H](c2c(C3CCOCC3)n(-c3ccc(F)c(F)c3)c3cc4cn[nH]c4cc32)C1 [Compound 65]	> 3 µM
O=C(O)[C@H]1C[C@H](c2c(C3CCOCC3)n(-c3ccc(F)c(F)c3)c3cc4cn[nH]c4cc32)C1 [Compound 66]	1.16 to 3 µM
O=C(O)[C@H]1CC[C@H](c2c(C3CCOCC3)n(-c3ccc(F)c(F)c3)c3cc4cn[nH]c4cc32)CC1 [Compound 75, (1r,4r)-4-(5-(3,4-difluorophenyl)-6-(tetrahydro-2H-pyran-4-yl)-1,5-dihydropyrrolo[2,3-f]indazol-7-yl)cyclohexane-1-carboxylic Acid]	< 1.16 µM
O=C(O)CCc1c(C2CCOCC2)n(-c2ccc(F)c(Cl)c2)c2cc3cn[nH]c3cc12 [Compound 82]	> 3 µM
O=C(O)[C@H]1CC[C@H](Cc2c(C3CCOCC3)n(-c3ccc(F)c(Cl)c3)c3cc4cn[nH]c4cc23)CC1 [Compound 84]	1.16 to 3 µM
Cc1cc(-n2c(C3CCOCC3)c(CCC(=O)O)c3cc4[nH]ncc4cc32)ccc1F [Compound 86]	> 3 µM
Cc1cc(-n2c(C3CCOCC3)c(CC3(C(=O)O)CC3)c3cc4[nH]ncc4cc32)ccc1F [Compound 87]	1.16 to 3 µM
Cc1cc(-n2c(C3CCOCC3)c(CCCC(=O)O)c3cc4[nH]ncc4cc32)ccc1F [Compound 88]	1.16 to 3 µM
Cc1cc(-n2c(C3CCOCC3)c([C@H]3C[C@@H](C(=O)O)C3)c3cc4[nH]ncc4cc32)ccc1F [Compound 99]	> 3 µM
Cc1cc(-n2c(C3CCOCC3)c([C@H]3C[C@H](C(=O)O)C3)c3cc4[nH]ncc4cc32)ccc1F [Compound 100]	1.16 to 3 µM
Cc1cc(-n2c(C3CCOCC3)c(CC34CC(C(=O)O)(C3)C4)c3cc4[nH]ncc4cc32)ccc1F [Compound 103]	> 3 µM
O=C(O)CCc1c(C2CCOCC2)n(-c2ccc(F)cc2)c2cc3cn[nH]c3cc12 [Compound 107]	> 3 µM
O=C(O)C1(Cc2c(C3CCOCC3)n(-c3ccc(F)cc3)c3cc4cn[nH]c4cc23)CC1 [Compound 111]	1.16 to 3 µM
O=C(O)[C@H]1C[C@@H](c2c(C3CCOCC3)n(-c3ccc(F)cc3)c3cc4cn[nH]c4cc32)C1 [Compound 112]	> 3 µM
O=C(O)[C@H]1C[C@H](c2c(C3CCOCC3)n(-c3ccc(F)cc3)c3cc4cn[nH]c4cc32)C1 [Compound 113]	1.16 to 3 µM
O=C(O)[C@H]1C[C@@H](Cc2c(C3CCOCC3)n(-c3ccc(F)cc3)c3cc4cn[nH]c4cc23)C1 [Compound 117]	1.16 to 3 µM
O=C(O)[C@H]1C[C@H](Cc2c(C3CCOCC3)n(-c3ccc(F)cc3)c3cc4cn[nH]c4cc23)C1 [Compound 118]	> 3 µM
